Measurements as given in ChEMBL document CHEMBL5365405, “Discovery of potent NAMPT-Targeting PROTACs using FK866 as the warhead” (Bioorg Med Chem Lett, 2023).
pEC50, pIC50: −log10 of the molar value. Activity calls are given as the source filed them. The rule behind the calls is not given here.

Assays:
[1] = Cytotoxicity activity against HUVEC cells assessed as cell growth inhibition; format: toxicity, cell-based; settings: human
A2780 [2] = assay: Antiproliferative activity against human A2780 cells assessed as cell growth inhibition; format: functional, cell-based
[3] = target: Nicotinamide phosphoribosyltransferase (Homo sapiens, UniProt P43490); assay: Inhibition of NAMPT (unknown origin)
[4] = target: T1, von Hippel-Lindau disease tumor suppressor/Nicotinamide phosphoribosyltransferase (Homo sapiens) (UniProt P43490+P40337); assay: (§1) PROTAC activity at VHL/NAMPT in human A2780 cells assessed as protein degradation measured after 24 hrs by Western blot analysis; format: cell-based
[5] = target: von Hippel-Lindau disease tumor suppressor/Nicotinamide phosphoribosyltransferase (Homo sapiens, UniProt P40337+P43490); assay: as §1; format: cell-based
A2780 [6] = assay: Induction of apoptosis in human A2780 cells assessed as total apoptotic cells at 1.6 nM incubated for 48 hrs by flow cytometry analysis (reference value: 9.27 %); format: functional
A2780 [7] = assay: Induction of apoptosis in human A2780 cells assessed as total apoptotic cells at 1000 nM incubated for 48 hrs by flow cytometry analysis (reference value: 9.27 %); format: functional
A2780 [8] = assay: Induction of apoptosis in human A2780 cells assessed as total apoptotic cells at 40 nM incubated for 48 hrs by flow cytometry analysis (reference value: 9.27 %); format: functional
[9] = target: T1, von Hippel-Lindau disease tumor suppressor/Nicotinamide phosphoribosyltransferase (Homo sapiens); assay: PROTAC activity at VHL/NAMPT in human A2780 cells assessed as protein degradation at 200 nM preincubated with VHL-Ac followed by compound addition and measured after 24 hrs by Western blot analysis; format: cell-based
[10] = target: T1, von Hippel-Lindau disease tumor suppressor/Nicotinamide phosphoribosyltransferase (Homo sapiens); assay: PROTAC activity at VHL/NAMPT in human A2780 cells assessed as protein degradation at 200 nM preincubated with MLN4924 followed by compound addition and measured after 24 hrs by Western blot analysis; format: cell-based
[11] = target: T1, von Hippel-Lindau disease tumor suppressor/Nicotinamide phosphoribosyltransferase (Homo sapiens); assay: PROTAC activity at VHL/NAMPT in human A2780 cells assessed as protein degradation at 200 nM by Western blot analysis; format: cell-based; settings: TDE = time-dependent effect
[12] = target: T1, von Hippel-Lindau disease tumor suppressor/Nicotinamide phosphoribosyltransferase (Homo sapiens); assay: PROTAC activity at VHL/NAMPT in human A2780 cells assessed as protein degradation at 200 nM preincubated with carfilzomib followed by compound addition and measured after 24 hrs by Western blot analysis; format: cell-based
[13] = target: T1, von Hippel-Lindau disease tumor suppressor/Nicotinamide phosphoribosyltransferase (Homo sapiens); assay: PROTAC activity at VHL/NAMPT in human A2780 cells assessed as protein degradation at 200 nM measured after 24 hrs by Western blot analysis relative to control; format: cell-based
[14] = target: T1, von Hippel-Lindau disease tumor suppressor/Nicotinamide phosphoribosyltransferase (Homo sapiens); assay: PROTAC activity at VHL/NAMPT in human A2780 cells assessed as protein degradation at 200 nM preincubated with NAMPT inhibitor, FK866 followed by compound addition and measured after 24 hrs by Western blot analysis; format: cell-based
[15] = target: T1, von Hippel-Lindau disease tumor suppressor/Nicotinamide phosphoribosyltransferase (Homo sapiens); assay: PROTAC activity at VHL/NAMPT in human A2780 cells assessed as protein degradation at 200 nM preincubated with VHL-Boc followed by compound addition and measured after 24 hrs by Western blot analysis; format: cell-based
[16] = target: T1, von Hippel-Lindau disease tumor suppressor/Nicotinamide phosphoribosyltransferase (Homo sapiens); assay: PROTAC activity at VHL/NAMPT in human A2780 cells assessed as protein degradation at 200 nM preincubated with MG132 followed by compound addition and measured after 24 hrs by Western blot analysis; format: cell-based

T1 sequence (P40337 whole entry, looked up): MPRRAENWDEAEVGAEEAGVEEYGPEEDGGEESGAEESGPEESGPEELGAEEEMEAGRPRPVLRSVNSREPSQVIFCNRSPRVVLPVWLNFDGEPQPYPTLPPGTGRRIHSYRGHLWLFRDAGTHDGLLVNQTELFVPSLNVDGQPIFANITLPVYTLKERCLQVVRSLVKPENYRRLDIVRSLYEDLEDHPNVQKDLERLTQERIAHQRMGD
T1 sequence (P43490 whole entry, looked up): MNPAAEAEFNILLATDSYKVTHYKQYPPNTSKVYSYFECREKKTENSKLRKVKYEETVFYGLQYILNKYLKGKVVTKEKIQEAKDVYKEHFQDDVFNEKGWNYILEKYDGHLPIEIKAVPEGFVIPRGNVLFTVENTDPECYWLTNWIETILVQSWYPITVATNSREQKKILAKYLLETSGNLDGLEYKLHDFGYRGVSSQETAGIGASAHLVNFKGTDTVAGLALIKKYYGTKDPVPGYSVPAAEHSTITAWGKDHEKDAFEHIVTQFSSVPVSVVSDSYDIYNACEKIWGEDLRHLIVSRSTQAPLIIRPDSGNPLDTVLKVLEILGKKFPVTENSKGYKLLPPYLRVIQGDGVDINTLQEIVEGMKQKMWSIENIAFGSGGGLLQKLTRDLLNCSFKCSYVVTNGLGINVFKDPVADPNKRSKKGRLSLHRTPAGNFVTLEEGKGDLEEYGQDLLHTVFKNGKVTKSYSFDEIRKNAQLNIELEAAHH
Chain of von Hippel-Lindau disease tumor suppressor/Nicotinamide phosphoribosyltransferase (P43490 whole entry): as the sequence (P43490 whole entry, looked up) above
Chain of von Hippel-Lindau disease tumor suppressor/Nicotinamide phosphoribosyltransferase (P40337 whole entry): as the sequence (P40337 whole entry, looked up) above
Chain of Nicotinamide phosphoribosyltransferase (P43490 whole entry): as the sequence (P43490 whole entry, looked up) above

pIC50 (A2780 [2]) | pIC50 [3] | Activity [4] | pEC50 [5] | Compound | pIC50 [1] | further results
8.52 | 8.57 | Dose-Dependent Effect | 6.72 | Cc1ncsc1-c1ccc([C@H](C)NC(=O)[C@@H]2C[C@@H](O)CN2C(=O)[C@@H](NC(=O)CCCCNC(=O)c2ccc(C(=O)N3CCC(CCCCNC(=O)/C=C/c4cccnc4)CC3)cc2)C(C)(C)C)cc1 | 9.68 | –
> 8.40 | – | – | – | Cc1ncsc1-c1ccc([C@H](C)NC(=O)[C@@H]2C[C@@H](O)CN2C(=O)[C@@H](NC(=O)COCCOCCOCCOCCNC(=O)c2ccc(CN3CCN(S(=O)(=O)c4ccc(NC(=S)NCc5cccnc5)cc4)CC3)cc2)C(C)(C)C)cc1 | – | –
7.47 | 8.82 | – | – | Cc1ncsc1-c1ccc([C@H](C)NC(=O)[C@@H]2C[C@@H](O)CN2C(=O)[C@@H](NC(=O)CCCNC(=O)c2ccc(C(=O)N3CCC(CCCCNC(=O)/C=C/c4cccnc4)CC3)cc2)C(C)(C)C)cc1 | 8.98 | –
> 8.52 | – | – | – | O=C(/C=C/c1cccnc1)NCCCCC1CCN(C(=O)c2ccccc2)CC1 [DAPORINAD] | > 12.00 | Activity (A2780 [6]): 10.22%; Activity (A2780 [7]): 26.84%; Activity (A2780 [8]): 16.3%
7.16 | 8.14 | – | < 6.30 | Cc1ncsc1-c1ccc([C@H](C)NC(=O)[C@@H]2C[C@@H](O)CN2C(=O)[C@@H](NC(=O)CCCCCCCCCNC(=O)c2ccc(C(=O)N3CCC(CCCCNC(=O)/C=C/c4cccnc4)CC3)cc2)C(C)(C)C)cc1 | 8.82 | –
8.23 | 8.80 | Dose-Dependent Effect | 7.25 | Cc1ncsc1-c1ccc([C@H](C)NC(=O)[C@@H]2C[C@@H](O)CN2C(=O)[C@@H](NC(=O)CCCCCCNC(=O)c2ccc(C(=O)N3CCC(CCCCNC(=O)/C=C/c4cccnc4)CC3)cc2)C(C)(C)C)cc1 | 10.15 | –
7.51 | 8.67 | Dose-Dependent Effect | 7.50 | Cc1ncsc1-c1ccc([C@H](C)NC(=O)[C@@H]2C[C@@H](O)CN2C(=O)[C@@H](NC(=O)CCCCCCCNC(=O)c2ccc(C(=O)N3CCC(CCCCNC(=O)/C=C/c4cccnc4)CC3)cc2)C(C)(C)C)cc1 | 9.52 | Activity [9]: inactive; Activity [10]: inactive; Activity [11]: Tde; Activity [12]: inactive; Activity [13]: 78%; Activity [14]: inactive; Activity (A2780 [6]): 10.15%; Activity (A2780 [7]): 20.81%; Activity [15]: inactive; Activity (A2780 [8]): 14.57%; Activity [16]: inactive
7.39 | 8.83 | – | 6.95 | Cc1ncsc1-c1ccc([C@H](C)NC(=O)[C@@H]2C[C@@H](O)CN2C(=O)[C@@H](NC(=O)CCCCCCCCCCNC(=O)c2ccc(C(=O)N3CCC(CCCCNC(=O)/C=C/c4cccnc4)CC3)cc2)C(C)(C)C)cc1 | 8.65 | –
7.42 | 8.51 | Dose-Dependent Effect | 7.26 | Cc1ncsc1-c1ccc([C@H](C)NC(=O)[C@@H]2C[C@@H](O)CN2C(=O)[C@@H](NC(=O)CCCCCCCCNC(=O)c2ccc(C(=O)N3CCC(CCCCNC(=O)/C=C/c4cccnc4)CC3)cc2)C(C)(C)C)cc1 | 9.05 | –
8.62 | 8.25 | Dose-Dependent Effect | 6.53 | Cc1ncsc1-c1ccc([C@H](C)NC(=O)[C@@H]2C[C@@H](O)CN2C(=O)[C@@H](NC(=O)CCCCCNC(=O)c2ccc(C(=O)N3CCC(CCCCNC(=O)/C=C/c4cccnc4)CC3)cc2)C(C)(C)C)cc1 | 9.35 | –
